In PubChem BioAssay AID540271 (Broad Institute, 2011):
Activity calls are given as the source filed them. The rule behind the calls is not given here.

Test system: S. cerevisiae expressing PfHSP40, growth rescue, plate reader
Test: Yeast growth rescue from Plasmodium falciparum HSP40 toxicity, dose response confirmatory, plate reader (AID 540271);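 note: yeast growth read after three days of incubation at 30 °C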

| Compound | AC50 |
| --- | --- |
| Cc1ccc(NC(=O)CN(C)C(=O)c2cccnc2Nc2cccc(C(F)(F)F)c2)cc1 | 4.74 µM |
| CC1CCc2c(C(=O)Nc3ccccn3)csc2C1 (centres undefined) | 9.29 µM |
| O=c1c2ccccc2c(-c2ccc(O)cc2)nn1-c1cccc(C(F)(F)F)c1 | 3.92 µM |
| Cc1nc2ccc(NC(=O)Cc3ccc4c(c3)OCCO4)cc2s1 | 4.83 µM |
| CC1=NN(C(N)=S)C(=O)C1N=Nc1cccc(Cl)c1C (centres undefined) | 3.3 µM |
| Clc1ccc(CSC(Cn2ccnc2)c2ccc(Cl)cc2Cl)cc1 (centres undefined) | 0.25 µM |
| O=C(c1ccccc1)c1ccc(Cn2cc(-c3ccccc3)nn2)cc1 | 4.34 µM |
| O=C1c2ccccc2NC(c2ccc(-c3cccc([N+](=O)[O-])c3)o2)N1O (centres undefined) | 4.69 µM |
| Cc1ccc(C(=O)Sc2cccccc2=O)cc1 | 0.295 µM |
| Cc1ccc(Sc2cc(C)nc(-c3ccccn3)n2)cc1 | 3.51 µM |
| COc1ccc(-c2oc3ccccc3c2C#Cc2cncn2C)cc1 | 4.94 µM |
| CCc1sc(C(=O)Nc2nc(-c3ccccn3)cs2)cc1C | 1.82 µM |
| O=S1OC(c2ccccc2)c2cc(Cl)ccc21 (centres undefined) | 10.8 µM |
| Nc1c(Cl)ncnc1N/N=C/c1ccc2ccccc2n1 | 5.36 µM |
| Clc1cccc(N/N=C(\Cc2nc3ccccc3[nH]2)c2ccccc2)c1 | 9.04 µM |
| COc1ccc(C(=O)c2c(C(F)(F)F)oc3c2C(=O)c2ccccc2C3=O)cc1OC | 6.24 µM |
| O=C(N/N=C/c1c(O)n(Cc2ccccc2)c(=O)c2ccccc12)c1cccnc1 | 6.92 µM |
| COc1ccc2c(n1)Sc1nc3ccccc3nc1N2 | 1.35 µM |
| CSC(=S)N/N=C/c1ccccc1 | 5.83 µM |
| CCCCCCCCCCOC(=O)Cn1c(COc2ccccc2)[n+](C)c2ccccc21 | > 12 µM (inactive) |

| Compound | AC50 |
| --- | --- |
| N=c1c2c(-c3ccccc3)c(-c3ccccc3)n(Cc3ccco3)c2ncn1CCCn1ccnc1 | > 12 µM (inactive) |
| CCCCNc1c(-c2cccc(-c3ccc(OC)cc3)c2)nc2ccc(C)cn12 | 5.67 µM |
| CCCCCCC(Cl)(Cn1ccnc1)c1ccccc1 (centres undefined) | 6.48 µM |
| CC(C)CSc1n[nH]c(=S)s1 | 6.48 µM |
| CC1=CC(=O)C=C(C)C1=NOS(=O)(=O)c1ccccc1 | 4.15 µM |
| Cc1onc(-c2c(Cl)cccc2Cl)c1C(=O)N/N=C(\N)COc1ccc(Cl)cc1 | 3.02 µM |
| CCc1ccc(NC(=O)CSc2ccc(-c3ccccn3)nn2)cc1 | 2.44 µM |
| CCC(C)c1ccc(NC(=S)NCCn2cc(Br)cn2)cc1 (centres undefined) | 10.1 µM |
| CCOC(=O)c1ccc(NC(=O)CC2OCCN(CC)C2=O)cc1 (centres undefined) | 4.89 µM |
| CCOC(=O)c1ccc(NC(=O)CC2C(=O)OCCN2CC)cc1 (centres undefined) | 4.66 µM |
| S=C(Nc1ccc(Oc2ccccc2)cc1)NC1CCCCCC1 | 6.93 µM |
| O=C(c1ccccc1)c1coc2c1C(=O)c1ccccc1C2=O | 11.7 µM |
| Cc1ccccc1NC(=O)CSc1ccc(-c2ccccn2)nn1 | 4.42 µM |
| Cn1nc(C(F)(F)F)c(C#N)c1N1CCN(c2ccc(F)cc2)CC1 | 7.37 µM |
| CCN1/C(=C/c2sc(-c3ccccc3C)c[n+]2C)Sc2ccccc21 | 5.83 µM |
| O=C(C1=C(Nc2ccccc2)c2ccccc2S(=O)(=O)N1)c1ccccc1 | 5.09 µM |
| Cc1ccc(-c2cc(-c3ccc(C)cc3)[n+](-c3ccccc3)c(-c3ccc(C)cc3)c2)cc1 | 5.4 µM |
| CN(C)c1ccc(C=c2c3cc(O)ccc3n3c2cc(-c2ccccc2)[n+]3C)cc1 | 2.88 µM |
| Cc1noc2ncnc(SCc3ccc(C(F)(F)F)cc3)c12 | 7.67 µM |
| CC(=O)Nc1cccc(NC(=O)CSc2ccc(-c3ccccn3)nn2)c1 | 3.64 µM |

| Compound | AC50 |
| --- | --- |
| CC(=O)Oc1ccc(OC(C)=O)c(SCCCCCCl)c1 | 7.6 µM |
| Cc1ccccc1Oc1nc(-c2ccccn2)nc2ccccc12 | 2.29 µM |
| O=Nc1c(O)c2ccccc2c2ccccc12 | 0.902 µM |
| Oc1c(Br)cc(Br)cc1CNc1ccc(F)cc1 | 6.21 µM |
| O=C(Nc1nnc(-c2cccs2)o1)c1cccc(Oc2ccccc2)c1 | 2.57 µM |
| c1ccc(CSc2ccc(-c3ccccn3)nn2)nc1 | 4.49 µM |
| O=[N+]([O-])c1ccc(-c2nc(-c3cccs3)c(-c3cccs3)[nH]2)cc1 | 4.2 µM |
| O=C(NNC(=O)c1cc(Cl)ccc1O)c1ccc(NS(=O)(=O)c2cccs2)cc1 | 5.61 µM |
| O=C(Nc1ccc(Br)c(C(F)(F)F)c1)c1ccccc1 | 4.78 µM |
| O=C(COC(=O)c1ccc([N+](=O)[O-])o1)NCc1ccc(F)cc1 | 6.66 µM |
| O=C(NC(=S)N(CCc1ccccc1)CCc1ccccc1)c1ccco1 | 5.34 µM |
| CC(C)(CN1CCc2ccccc2C1)NS(=O)(=O)c1ccc(Cl)cc1 | 11 µM |
| C(=N\Nc1nncc2ccccc12)/c1ccccn1 | 4.74 µM |
| Cc1n[nH]c(C)c1N=Nc1ccc(Br)cc1 | 6.88 µM |
| CCCCC(=O)NC(=S)NNC(=O)CCc1ccccc1 | 5.21 µM |
| Clc1ccc(-c2n[nH]c3c2CCC3)cc1Cl | 5.64 µM |
| CC1CC(C)CN(C(=O)c2cccc(S(=O)(=O)Nc3cc(C(F)(F)F)ccc3Cl)c2)C1 (centres undefined) | 5.69 µM |
| CC(=O)Nc1cccc(-c2cc(-c3c(Cl)cccc3Cl)no2)c1 | 3.12 µM |
| O=C(Nc1ccc(C2=NCCN2)cc1)c1ccc(C(=O)Nc2ccc(C3=NCCN3)cc2)c(Cl)c1 | 4.17 µM |
